Source: patent US9351955B2, “Compounds and pharmaceutical compositions thereof for the treatment of cystic fibrosis” (Galapagos NV, priority 2013, dated 2016)
Read-outs that look alike come from different tables or passages of the source.

What was measured:
Assay type in all cases: cell-based
[1] = molecular target: T1, CFTR ΔF508 mutant (Homo sapiens, UniProt P13569, DEL508-508); experiment: YFP-halide influx assay for the CFTR-ΔF508 mutation (96 well, CFBE41o- cells); conditions: read-out: EC50 measured by YFP-halide influx assay for the CFTR-ΔF508
T1 construct: expressed in transfected cells; host or cells: CFBE41o- (adenoviral transduction)
T1 sequence (P13569 with tags, fused parts or gaps DEL508-508): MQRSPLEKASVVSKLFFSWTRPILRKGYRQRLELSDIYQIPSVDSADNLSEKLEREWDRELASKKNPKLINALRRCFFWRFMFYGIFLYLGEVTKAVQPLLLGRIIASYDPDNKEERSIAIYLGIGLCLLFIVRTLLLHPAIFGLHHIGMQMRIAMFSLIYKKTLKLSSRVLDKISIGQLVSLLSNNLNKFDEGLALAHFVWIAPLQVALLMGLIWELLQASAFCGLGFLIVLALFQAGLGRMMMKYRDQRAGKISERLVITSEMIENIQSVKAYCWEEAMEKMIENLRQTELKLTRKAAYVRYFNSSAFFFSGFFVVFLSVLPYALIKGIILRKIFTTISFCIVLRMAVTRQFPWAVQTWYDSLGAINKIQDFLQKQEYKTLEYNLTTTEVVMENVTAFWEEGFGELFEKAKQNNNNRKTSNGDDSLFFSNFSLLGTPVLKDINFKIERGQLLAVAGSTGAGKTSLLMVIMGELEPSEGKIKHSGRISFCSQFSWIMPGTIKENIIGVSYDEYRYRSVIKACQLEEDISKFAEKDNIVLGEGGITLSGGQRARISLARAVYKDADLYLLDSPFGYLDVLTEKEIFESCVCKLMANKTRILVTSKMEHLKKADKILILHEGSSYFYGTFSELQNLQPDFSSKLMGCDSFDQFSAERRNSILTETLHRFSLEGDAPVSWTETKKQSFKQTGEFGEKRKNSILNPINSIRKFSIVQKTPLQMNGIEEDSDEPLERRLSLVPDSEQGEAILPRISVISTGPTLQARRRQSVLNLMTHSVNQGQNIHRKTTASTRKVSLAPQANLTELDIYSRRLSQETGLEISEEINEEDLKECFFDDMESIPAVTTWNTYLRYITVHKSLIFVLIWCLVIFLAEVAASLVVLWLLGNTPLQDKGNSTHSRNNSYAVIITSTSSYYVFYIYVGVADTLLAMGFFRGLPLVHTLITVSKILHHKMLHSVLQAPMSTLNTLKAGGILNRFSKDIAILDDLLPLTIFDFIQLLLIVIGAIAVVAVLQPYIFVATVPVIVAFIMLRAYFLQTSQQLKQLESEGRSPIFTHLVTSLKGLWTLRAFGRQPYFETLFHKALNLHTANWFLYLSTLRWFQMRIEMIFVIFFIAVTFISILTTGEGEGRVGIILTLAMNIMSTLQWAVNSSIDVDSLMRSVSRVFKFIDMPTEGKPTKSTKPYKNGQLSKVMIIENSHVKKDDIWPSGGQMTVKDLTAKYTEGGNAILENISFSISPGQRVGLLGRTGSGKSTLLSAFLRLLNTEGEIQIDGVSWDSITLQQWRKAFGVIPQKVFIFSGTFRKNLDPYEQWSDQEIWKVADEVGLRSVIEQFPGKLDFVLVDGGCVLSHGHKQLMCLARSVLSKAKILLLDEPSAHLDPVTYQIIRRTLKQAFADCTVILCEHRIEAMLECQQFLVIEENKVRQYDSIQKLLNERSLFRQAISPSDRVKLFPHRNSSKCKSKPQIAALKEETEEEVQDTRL
Excerpt: 6.1. YFP-Halide Influx Assay for the CFTR-ΔF508 Mutation
(§1) The YFP halide influx assay measures the functionality of the cystic fibrosis Transmembrane Conductance regulator (CFTR) channels in the cystic fibrosis bronchial epithelium cell line CFBE41o-. The assay is used to evaluate the capacity of compounds to increase the open probability of existing CFTR channels in the membrane. It makes use of the observation that the yellow fluorescent protein (YFP) variant YFP H148Q, I152L has its fluorescence substantially quenched by halide ions like Cl^− and I^−. (Galietta et al., 2001; Nagai et al., 2002)
For this purpose, CFBE410-cells are seeded in 96 well plates (6000 CFBE cells/well). One day after seeding, the CFBE cells are transduced with adenoviral vectors that direct the expression of the CFTR ΔF508 mutant and of the YFP reporter. Cells are incubated at 27° C., 5% CO2 for 24 hours so as to allow for the proper folding and migration to the membrane of the CFTR channel or treated with a CFTR modulator during 24 h at 37° C.
(§2) The F induced quenching of fluorescence is recorded immediately after injection of I^− for 7 seconds. The capacity of a compound to increase the channel opening is directly correlated with the decrease in fluorescence, and is expressed as (1-(fluorescence after 7 seconds (F)/fluorescence before injection (F0))) and an EC50 can be derived from a (1−F/F0) vs compound concentration plot.

[2] = molecular target: T2, CFTR G551D mutant (Homo sapiens, UniProt P13569, G551D); experiment: YFP-halide influx assay for the CFTR-G551D mutation (HEK293 cells); conditions: read-out: EC50 measured by YFP-halide influx assay for the CFTR-G551D
T2 construct: expressed in transfected cells; host or cells: HEK293 (reverse transfection with plasmids)
T2 sequence (P13569 whole entry G551D): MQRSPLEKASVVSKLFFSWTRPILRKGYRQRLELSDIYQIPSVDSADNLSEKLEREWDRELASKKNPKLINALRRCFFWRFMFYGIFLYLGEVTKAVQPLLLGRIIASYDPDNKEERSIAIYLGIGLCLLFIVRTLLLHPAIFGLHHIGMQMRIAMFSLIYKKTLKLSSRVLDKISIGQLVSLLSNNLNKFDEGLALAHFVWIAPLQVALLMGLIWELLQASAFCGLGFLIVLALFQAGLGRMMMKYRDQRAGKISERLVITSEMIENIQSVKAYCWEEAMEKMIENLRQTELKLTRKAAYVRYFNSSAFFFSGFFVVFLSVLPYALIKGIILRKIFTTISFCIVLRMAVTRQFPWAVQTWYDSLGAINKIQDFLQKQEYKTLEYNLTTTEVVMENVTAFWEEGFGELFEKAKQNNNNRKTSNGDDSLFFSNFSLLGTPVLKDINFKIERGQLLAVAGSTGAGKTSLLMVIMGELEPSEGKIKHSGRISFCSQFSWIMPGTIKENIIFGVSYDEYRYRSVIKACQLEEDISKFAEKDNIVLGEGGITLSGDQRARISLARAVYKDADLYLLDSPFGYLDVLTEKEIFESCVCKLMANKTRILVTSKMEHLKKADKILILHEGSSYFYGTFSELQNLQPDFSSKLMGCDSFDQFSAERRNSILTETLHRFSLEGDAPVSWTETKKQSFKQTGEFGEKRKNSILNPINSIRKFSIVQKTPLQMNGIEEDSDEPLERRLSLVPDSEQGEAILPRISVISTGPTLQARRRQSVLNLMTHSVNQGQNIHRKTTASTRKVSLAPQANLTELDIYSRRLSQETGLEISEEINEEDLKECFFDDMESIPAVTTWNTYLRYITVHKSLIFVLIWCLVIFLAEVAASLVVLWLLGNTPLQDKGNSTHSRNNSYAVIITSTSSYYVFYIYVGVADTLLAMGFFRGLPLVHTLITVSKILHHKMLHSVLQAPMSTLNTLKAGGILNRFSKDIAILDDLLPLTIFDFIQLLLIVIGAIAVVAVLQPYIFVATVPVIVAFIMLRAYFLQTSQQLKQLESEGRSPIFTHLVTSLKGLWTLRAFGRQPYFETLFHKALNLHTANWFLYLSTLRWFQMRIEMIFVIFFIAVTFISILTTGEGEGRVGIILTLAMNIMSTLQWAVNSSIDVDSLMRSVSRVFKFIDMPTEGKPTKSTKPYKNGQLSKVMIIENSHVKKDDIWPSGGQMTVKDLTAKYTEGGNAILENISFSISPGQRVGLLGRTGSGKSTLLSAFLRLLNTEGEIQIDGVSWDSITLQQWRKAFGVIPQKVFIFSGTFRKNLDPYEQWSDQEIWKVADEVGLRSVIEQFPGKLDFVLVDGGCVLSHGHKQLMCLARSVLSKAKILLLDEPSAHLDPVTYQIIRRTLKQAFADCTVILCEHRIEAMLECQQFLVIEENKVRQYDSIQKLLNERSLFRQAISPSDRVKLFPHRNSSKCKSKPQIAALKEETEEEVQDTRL
Excerpt: 6.3. YFP-Halide Influx Assay for the CFTR-G551D Mutation
as §1, with “channels.” for “channels in the cystic fibrosis bronchial epithelium cell line CFBE41o-.”, “channel opening” for “open probability”, “existing mutant” for “existing”, “I152L, F47L” for “I152L”, “2001)” for “2001; Nagai et al., 2002)”
For this purpose, HEK293-cells are seeded in 96 well plates. During seeding, the cells are reverse-transfected with plasmid vectors that direct the expression of the CFTR G551D mutant and of the YFP reporter. Cells are incubated at 37° C., 5% CO2 for 24 hours so as to allow for sufficient expression of the CFTR protein.
as §2, with “I^−-induced” for “F induced”, “(1−(fluorescence” for “(1-(fluorescence”

[3] = molecular target: T1, CFTR ΔF508 mutant; experiment: YFP-halide influx assay for the CFTR-ΔF508 mutation (384 well, CFBE41o- cells, FDSS/μCell); conditions: forskolin 10.67 μM, fluorescence after 36 seconds, read-out: EC50 measured by YFP-halide influx assay for the CFTR-ΔF508
In short: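 CFBE41o- cells were adenovirally transduced with ΔF508 CFTR and the YFP H148Q/I152L reporter. Cells were then held 24 h at 27 °C or treated 24 h at 37 °C with a CFTR modulator. Iodide-induced quench was recorded for 2 min, and EC50 was derived from 1−F/F0 at 36 s against compound concentration.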

[4] = compounds of the invention, 96 well, forskolin 10.67 μM
[5] = HEK293 cells expressing CFTR G551D and YFP reporter, forskolin 10.67 μM

EC50 ([1]; comparative compounds) [nM]	EC50 ([2]; comparative compounds, HEK293 cells) [nM]	EC50 [1, 4] [nM]	EC50 [3] [nM]	EC50 [2, 5] [nM]	SMILES
156	> 10000	–	–	–	NC(=O)c1c(NC(=O)c2ccccc2O)sc2c1CCOC2 [D, 2-(2-hydroxybenzamido)-5,7-dihydro-4H-thieno[2,3-c]pyran-3-carboxamide, reference compound]
–	–	219	83	–	CC(O)C(=O)Nc1sc2c(c1C(N)=O)CC(C)(C)OC2(C)C (stereo not shown) [Compound 22, 2-(2-hydroxypropanamido)-5,5,7,7-tetramethyl-5,7-dihydro-4H-thieno[2,3-c]pyran-3-carboxamide]
–	–	305	422	3290	CC1(C)Cc2c(sc(NC(=O)c3cccnc3F)c2C(N)=O)C(C)(C)O1 [Compound 20, N-(3-carbamoyl-5,5,7,7-tetramethyl-5,7-dihydro-4H-thieno[2,3-c]pyran-2-yl)-2-fluoronicotinamide]
–	–	314	234	–	CC1(C)Cc2c(sc(NC(=O)c3cccc(F)n3)c2C(N)=O)C(C)(C)O1 [Compound 24, N-(3-carbamoyl-5,5,7,7-tetramethyl-5,7-dihydro-4H-thieno[2,3-c]pyran-2-yl)-6-fluoropicolinamide]
–	–	25.3	90.8	5250	CC1(C)Cc2c(sc(NC(=O)c3cc(C(C)(C)C)[nH]n3)c2C(N)=O)C(C)(C)O1 [Compound 16, 5-tert-butyl-N-(3-carbamoyl-5,5,7,7-tetramethyl-5,7-dihydro-4H-thieno[2,3-c]pyran-2-yl)-1H-pyrazole-3-carboxamide]
–	–	60.2	70.3	1090	CC1(C)Cc2c(sc(NC(=O)c3ccc(F)cc3C(F)(F)F)c2C(N)=O)C(C)(C)O1 [Compound 7, 2-(4-fluoro-2-(trifluoromethyl)benzamido)-5,5,7,7-tetramethyl-5,7-dihydro-4H-thieno[2,3-c]pyran-3-carboxamide]
–	–	22.8	27.3	308	CC1(C)Cc2c(sc(NC(=O)c3ccc(F)cc3F)c2C(N)=O)C(C)(C)O1 [Compound 8, 2-(2,4-difluorobenzamido)-5,5,7,7-tetramethyl-5,7-dihydro-4H-thieno[2,3-c]pyran-3-carboxamide]
–	–	1740	602	–	CC(=O)OC1(C(=O)Nc2sc3c(c2C(N)=O)CC(C)(C)OC3(C)C)CCOCC1 [Compound 41, 4-(3-carbamoyl-5,5,7,7-tetramethyl-5,7-dihydro-4H-thieno[2,3-c]pyran-2-ylcarbamoyl)tetrahydro-2H-pyran-4-yl acetate]
–	–	378	147	2000	CC1(C)Cc2c(sc(NC(=O)c3ccccc3NS(C)(=O)=O)c2C(N)=O)C(C)(C)O1 [Compound 28, 5,5,7,7-tetramethyl-2-(2-(methylsulfonamido)benzamido)-5,7-dihydro-4H-thieno[2,3-c]pyran-3-carboxamide]
–	–	10000	–	–	CC1(C)Cc2c(sc(NC(=O)C3CNC(=O)C3)c2C(N)=O)C(C)(C)O1 (stereo not shown) [Compound 29, N-(3-carbamoyl-5,5,7,7-tetramethyl-5,7-dihydro-4H-thieno[2,3-c]pyran-2-yl)-5-oxopyrrolidine-3-carboxamide]
–	–	12.2	65.6	282	CC1(C)Cc2c(sc(NC(=O)c3ccccc3F)c2C(N)=O)C(C)(C)O1 [Compound 1, 2-(2-fluorobenzamido)-5,5,7,7-tetramethyl-5,7-dihydro-4H-thieno[2,3-c]pyran-3-carboxamide]
–	–	16	25.4	892	CC1(C)Cc2c(sc(NC(=O)c3[nH]nc4c3COC4)c2C(N)=O)C(C)(C)O1 [Compound 37, N-(3-carbamoyl-5,5,7,7-tetramethyl-5,7-dihydro-4H-thieno[2,3-c]pyran-2-yl)-4,6-dihydro-1H-furo[3,4-c]pyrazole-3-carboxamide]
–	–	1270	–	–	CC1(C)Cc2c(sc(NC(=O)c3ccccc3-c3ncn[nH]3)c2C(N)=O)C(C)(C)O1 [Compound 26, 2-(2-(1H-1,2,4-triazol-5-yl)benzamido)-5,5,7,7-tetramethyl-5,7-dihydro-4H-thieno[2,3-c]pyran-3-carboxamide]
–	–	354	354	–	CN1CCc2[nH]nc(C(=O)Nc3sc4c(c3C(N)=O)CC(C)(C)OC4(C)C)c2C1 [Compound 31, N-(3-carbamoyl-5,5,7,7-tetramethyl-5,7-dihydro-4H-thieno[2,3-c]pyran-2-yl)-5-methyl-4,5,6,7-tetrahydro-1H-pyrazolo[4,3-c]pyridine-3-carboxamide]
–	–	–	87.9	825	CC1(C)Cc2c(sc(NC(=O)c3ccccc3C(F)F)c2C(N)=O)C(C)(C)O1 [Compound 123, 2-[[2-(difluoromethyl)benzoyl]amino]-5,5,7,7-tetramethyl-4H-thieno[2,3-c]pyran-3-carboxamide]
–	–	–	99.5	1620	Cc1cnc(C(=O)Nc2sc3c(c2C(N)=O)CC(C)(C)OC3(C)C)cn1 [Compound 141, N-(3-carbamoyl-5,5,7,7-tetramethyl-4H-thieno[2,3-c]pyran-2-yl)-5-methyl-pyrazine-2-carboxamide]
–	–	–	118	4710	CC1(C)Cc2c(sc(NC(=O)C3CC(F)(F)C3)c2C(N)=O)C(C)(C)O1 [Compound 47, 2-[(3,3-difluorocyclobutanecarbonyl)amino]-5,5,7,7-tetramethyl-4H-thieno[2,3-c]pyran-3-carboxamide]
–	–	–	125	5670	CC1(C)Cc2c(sc(NC(=O)c3cn[nH]c3)c2C(N)=O)C(C)(C)O1 [Compound 49, N-(3-carbamoyl-5,5,7,7-tetramethyl-4H-thieno[2,3-c]pyran-2-yl)-1H-pyrazole-4-carboxamide]
–	–	–	176	3330	CC(CO)C(=O)Nc1sc2c(c1C(N)=O)CC(C)(C)OC2(C)C (stereo not shown) [Compound 70, 2-[(3-hydroxy-2-methyl-propanoyl)amino]-5,5,7,7-tetramethyl-4H-thieno[2,3-c]pyran-3-carboxamide]
–	–	–	145	1170	CC1(C)Cc2c(sc(NC(=O)c3n[nH]cc3CO)c2C(N)=O)C(C)(C)O1 [Compound 88, N-(3-carbamoyl-5,5,7,7-tetramethyl-4H-thieno[2,3-c]pyran-2-yl)-4-(hydroxymethyl)-1H-pyrazole-3-carboxamide]
–	–	–	552	3330	CC1(C)Cc2c(sc(NC(=O)c3ccno3)c2C(N)=O)C(C)(C)O1 [Compound 133, N-(3-carbamoyl-5,5,7,7-tetramethyl-4H-thieno[2,3-c]pyran-2-yl)isoxazole-5-carboxamide]
–	–	–	121	2410	Cn1nccc1C(=O)Nc1sc2c(c1C(N)=O)CC(C)(C)OC2(C)C [Compound 120, N-(3-carbamoyl-5,5,7,7-tetramethyl-4H-thieno[2,3-c]pyran-2-yl)-2-methyl-pyrazole-3-carboxamide]
> 10000	–	–	–	–	NC(=O)c1c(NC(=O)c2ccccc2O)sc2c1CCNC2 [C, 2-(2-hydroxybenzamido)-4,5,6,7-tetrahydrothieno[2,3-c]pyridine-3-carboxamide, reference compound]
–	–	–	18.4	6660	CC1(C)Cc2c(sc(NC(=O)C(O)C3CC3)c2C(N)=O)C(C)(C)O1 (stereo not shown) [Compound 60, 2-[(2-cyclopropyl-2-hydroxy-acetyl)amino]-5,5,7,7-tetramethyl-4H-thieno[2,3-c]pyran-3-carboxamide]
